From the NIST ThermoML archive (doi:10.1016/j.jct.2015.09.028)

Columns and labels:
[1] = xn = mol fraction of the nth substance listed; details: 93 kPa, Liquid; for viscosity: Concentric cylinders viscometry; for mass density: Vibrating tube method
[2] = molar heat capacity at constant pressure; xn = mol fraction of the nth substance listed; details: Liquid, Flow calorimetry

c1ccc(Oc2ccccc2)cc1 [diphenyl ether] + c1ccc(-c2ccccc2)cc1
[1]
Details	mass density, x1 = 0.55 [kg/m3]	mass density, x1 = 0.705 [kg/m3]	mass density, x1 = 0.85 [kg/m3]	mass density, x1 = 1 [kg/m3]	viscosity, x1 = 0.55 [mPa·s]	viscosity, x1 = 0.705 [mPa·s]	viscosity, x1 = 0.85 [mPa·s]	viscosity, x1 = 1 [mPa·s]
288.15 K	–	1066.7	–	–	–	5.12	–	–
293.15 K	–	1062.4	–	–	–	4.39	–	–
298.15 K	–	1058.2	1064.2	–	–	3.81	3.8	–
303.15 K	–	1053.9	1060	1065.5	–	3.34	3.34	3.33
308.15 K	1043.7	1049.7	1055.7	1061.2	2.99	2.96	2.96	2.96
313.15 K	1039.5	1045.4	1051.3	1056.9	2.7	2.64	2.65	2.65
323.15 K	1031.1	1037	1042.7	1048.2	2.15	2.15	2.16	2.17
333.15 K	1022.6	1028.5	1034.1	1039.6	1.79	1.79	1.81	1.82
343.15 K	1014.1	1020	1025.5	1030.9	1.52	1.52	1.54	1.54
353.15 K	1005.6	1011.5	1016.9	1022.3	1.31	1.31	1.32	1.33
363.15 K	997.5	1003	1008.3	1013.7	1.14	1.14	1.15	1.16
373.15 K	989.2	994.9	999.8	1005.2	1	1.01	1.01	1.03

molar heat capacity at constant pressure [J/K/mol], [2]
Details	100 kPa	5000 kPa	10000 kPa	15000 kPa	20000 kPa	25000 kPa
293.15 K, x1 = 0.705	260.48	258.49	256.34	255.18	253.86	252.7
313.15 K, x1 = 0.55	273.53	272.22	270.76	269.94	269.29	268.96
313.15 K, x1 = 0.705	270.74	269.58	267.76	267.1	265.94	265.11
313.15 K, x1 = 0.85	272.02	270.67	270.17	269.67	269.5	269.33
313.15 K, x1 = 1	274.37	273.52	273.18	272.5	272.16	–
333.15 K, x1 = 0.55	285.75	284.45	284.29	283.96	283.8	–
333.15 K, x1 = 0.705	279.34	278.02	276.86	275.54	274.21	273.39
333.15 K, x1 = 0.85	285.1	284.6	284.27	284.1	283.76	283.43
333.15 K, x1 = 1	286.97	285.95	284.93	284.59	283.39	282.71
353.15 K, x1 = 0.55	295.7	294.88	294.55	294.39	293.25	293.09
353.15 K, x1 = 0.705	290.93	289.27	287.62	286.96	285.47	283.98
353.15 K, x1 = 0.85	299.2	297.86	297.69	297.35	297.19	296.68
353.15 K, x1 = 1	299.05	298.03	296.84	296.33	295.48	294.63
